US20040242501A1, “Spermicidal and virucidal properties of various forms of sophorolipids” (priority 2003, published 2004)

Assays:
[1] = test system: human spermatozoa (swim-up sperm); experiment: Sperm viability after washing (HOS medium); type: cell-based; settings: 0.3 mg/mL, post-wash, mean ± SD, n=5
Experimental: (§1) Motility and viability time-responses were studied with a sophorolipid testing concentration of 0.3 mg/mL. At this concentration no effect of the solvent was observed. All sperm used for this experiment and throughout the study were obtained from human semen samples through a one hour swim-up separation technique in BWW medium+0.1% HSA. 100 uL of swim-up sperm were incubated with 1 uL of compound for the time points of 2 min, 30 min, 2 hrs, and 4 hrs and assessed for progressive motility (“real-time” assessment). n=5 for all time points. Co-incubation samples were diluted with 1 mL of BWW medium+0.1% HSA. The tubes were centrifuged, the supernatant removed, and the sperm resuspended in the original volume of 100 uL BWW+0.1% HSA and incubated at 37° C., 5% CO2. At 30 min post-washing, motility was again assessed. After the 30 min post-wash assessment, 900 uL of HOS medium was added to the sample and tubes were incubated for 30 min at 37° C. Post-incubation, samples were assessed for viability. Motility and viability were quantified “manually” under dark field microscopy (Nikon E-800).

[2] = test system: human spermatozoa (swim-up sperm); experiment: Sperm motility time response (real-time and post-dilution/post-wash); type: cell-based; settings: 0.3 mg/mL, mean ± SD, n=5; for Real-Time Motility (%): initial solvent DMSO; for Post-Dilution Motility (%): then washed, 30 min post-washing
Experimental: as §1

MT-2 cells = experiment: Agent-induced cytotoxicity in cell-free inactivation assay; type: cell-based; parameters: TCTD50 Cytotoxicity: unit not given here; settings: for TCTD50 Cytotoxicity: MT-2 cells, day 7
Experimental: (§2) Pre-titered concentrated virus (HIV-1 RF) stock (10 μL) was mixed with 90 μL of the test agent formulation in microtubes. At the end of the two-minute exposure period, serial 10-fold dilutions were carried out with a multichannel pipettor so that the sample dilutions were performed simultaneously. Aliquots (100 μL) of the serial dilutions were then transferred simultaneously to another 96-well plate which had been pre-seeded with MT-2 cells in RPMI medium supplemented with FBS. Four wells were used for each dilution of virus. The cultures were incubated at 37° C. in a humidified atmosphere of 5% CO2. The cultures were scored microscopically for virus-induced cytopathic effect and agent-induced cytotoxicity on day 4 and 7 of incubation, and day 7 reported. Cultures were routinely maintained 2 to 3 days after initial analysis, and observed visually and microscopically for abnormalities.

HIV-1 RF = experiment: Cell-free HIV inactivation assay; type: cell-based, human immunodeficiency virus (HIV); settings: for Log Reduction in Virus Titer: two-minute exposure, day 7, virus control 6.0 log10 TCID50/0.1 mL; for virucidal / antiviral activity, in words: HIV as model organism, positive = minimum reduction in virus titer of 2 logs
Experimental: as §2

[3] = Percent of agent during exposure 0.03
[4] = Percent of agent during exposure 0.09
[5] = Percent of agent during exposure 0.3

Row | SMILES | Post-Dilution Viability (%) ([1]; 2 min incubation) | Post-Dilution Viability (%) ([1]; 30 min incubation) | Post-Dilution Viability (%) ([1]; 2 hour incubation) | Real-Time Motility (%) ([2]; 2 min incubation) | Post-Dilution Motility (%) ([2]; 2 min incubation) | Real-Time Motility (%) ([2]; 30 min incubation) | Post-Dilution Motility (%) ([2]; 30 min incubation) | Real-Time Motility (%) ([2]; 2 hour incubation) | Post-Dilution Motility (%) ([2]; 2 hour incubation) | TCTD50 Cytotoxicity (MT-2 cells; [3]) | TCTD50 Cytotoxicity (MT-2 cells; [4]) | TCTD50 Cytotoxicity (MT-2 cells; [5]) | Log Reduction in Virus Titer (HIV-1 RF; [3]) [Log] | Log Reduction in Virus Titer (HIV-1 RF; [4]) | Log Reduction in Virus Titer (HIV-1 RF; [5]) | cytotoxicity, in words (MT-2 cells) | virucidal / antiviral activity, in words (HIV-1 RF) | selectivity index (virucidal activity vs cytotoxicity), in words (HIV-1 RF; comparison among the four sophorolipids of Table 2) | virucidal / antiviral activity, in words (HIV-1 RF; listed as ethyl ester form of sophorolipid)
1 | CCOC(=O)CCCCCCC/C=C\CCCCCCC(C)O[C@@H]1O[C@H](COC(C)=O)[C@@H](O)[C@H](O)[C@H]1O[C@@H]1O[C@H](COC(C)=O)[C@@H](O)[C@H](O)[C@H]1O (relative stereo) [SLETDA, Ethyl 17-L[(2′-O-β-D glucopyranosyl-β-D-glucopyranosyl)-oxy]-cis-9-octadecenoate 6′,6″-diacetate] | 0.40 ± 0.90 | 0.20 ± 0.45 | 0.00 ± 0.00 | 0.00 ± 0.00 | 0.00 ± 0.00 | 0.00 ± 0.00 | 0.00 ± 0.00 | 0.00 ± 0.00 | 0.00 ± 0.00 | ≦0.5 | 1.5 | 1.5 | 1.7 | ≧4.5 Log | ≧4.5 Log |  |  |  | 
2 | CCCCCCOC(=O)CCCCCCC/C=C\CCCCCCC(C)O[C@@H]1O[C@H](CO)[C@@H](O)[C@H](O)[C@H]1O[C@@H]1O[C@H](CO)[C@@H](O)[C@H](O)[C@H]1O (relative stereo) [SLHEX, Hexyl 17-L-[(2′-O-β-D-glucopyranosyl-β-D-glucopyranosyl)-oxy]-cis-9-octadecenoate] | 2.27 ± 3.22 | 1.10 ± 2.46 | 0.00 ± 0.00 | 1.26 ± 1.22 | 1.55 ± 2.18 | 0.00 ± 0.00 | 0.00 ± 0.00 | 0.00 ± 0.00 | 0.00 ± 0.00 | ≦0.5 | ≦0.5 | 1.5 | 0 | 3.0 Log | 4.0 Log |  |  |  | 
3 | CCOC(=O)CCCCCCC/C=C\CCCCCCC(C)O[C@@H]1O[C@H](CO)[C@@H](O)[C@H](O)[C@H]1O[C@@H]1O[C@H](CO)[C@@H](O)[C@H](O)[C@H]1O (stereo partly shown) |  |  |  |  |  |  |  |  |  |  |  |  |  |  |  | reduced cytotoxicity | high activity | best selectivity index | 
4 | CCOC(=O)CCCCCCC/C=C\CCCCCCC(C)O[C@@H]1O[C@H](CO)[C@@H](O)[C@H](O)[C@H]1O[C@@H]1O[C@H](CO)[C@@H](O)[C@H](O)[C@H]1O (relative stereo) [SLET, Ethyl 17-L-[(2′-O-β-D-glucopyranosyl-β-D-glucopyranosyl)-oxy]-cis-9-octadecenoate] | 2.36 ± 5.29 | 1.00 ± 2.24 | 0.00 ± 0.00 | 0.73 ± 0.81 | 3.37 ± 3.87 | 0.00 ± 0.00 | 0.00 ± 0.00 | 0.00 ± 0.00 | 0.00 ± 0.00 | ≦0.5 | ≦0.5 | 1.5 | 2.0 | 3.3 Log | 4.3 Log |  |  |  | highly effective
